Patent US4957926A, “Method of treating herpesviruses” (priority 1988, dated 1990)
Read-outs that look alike come from different tables or passages of the source.

Columns and labels:
[1] = test system: Cytomegalovirus (Viral Strain Towne); experiment: Yield Reduction Assay against infections with CMV (Towne strain); type: cell-based; conditions: for activity at 500 µM / activity at 2000 µM: read-out: % Virus Control
Protocol: Antiviral activities of N-Bu-DNJ and comparative test compounds against infections with CMV (Towne strain) were also measured by the yield reduction assay as follows:
HEF cells (MRC-5) were infected at high multiplicity of infection (about one p.f.u. per cell) and incubated with various concentrations of the test compounds for 5 and 6 days post infection. The level of infectious virus shed into the extracellular fluid was determined at 5 and 6 days by plaque assays as described above, using serial dilution of extracellular fluid to bring readings on scale.
In Table VI, to calculate plaque-forming units (PFU) of the maintenance medium overlayering HEF cells, the plaque count at the most sensitive dilution (from Table V) was multiplied by dilution value and then by 5 (0.2 ml sample volumes used in test) to give PFU (per ml maintenance medium). (e.g. calculation of drug control: 31×10^3 ×5=1.6×10^5 PFU).

[2] = test system: Herpes Simplex Type II (Viral Strain HG52); experiment: Herpes Simplex Type II Plaque Reduction Assay; type: cell-based; conditions: for Plaque Count: replicate counts; for EC50: HSV type II
Description: (§1) For testing the N-Bu-DNJ against HSV, the HSV Type II strain HG52 described by Timbury, J. Gen. Virol. 13, 373-376 (1971), and Davis et al., Analyst 110, 605-609 (1985), is useful. For testing against CMV, the prototype CMV ADl69 strain described, for example, by Tyms et al., J. Gen. Virol. 68, 1563-1573 (1987), and in U.S. Pat. No. 4,743,560, is useful. Another useful CMV strain is the Towne strain described by Glazer et al., Ann. Inter. Med. 91, 676-683 (1979).
(§2) Human embryo fibroblast cells (HEF) were grown in Eagles minimal essential medium supplemented with 7% fetal calf serum (FCS), 9 mM sodium bicarbonate and 7 mM HEPES buffer. In maintenance medium the supplements were adjusted to 2% FCS, 13 mM sodium bicarbonate and 14 mM HEPES. CMV, strain Towne, and HSV type II, strain […], were used in the following tests. CMV virus stocks were prepared and stored by technique as previously described by Tyms & Williamson, Nature 297, 690-691 […]. Herpes virus stocks were prepared and stored by technique as previously described by Davis et al., Analyst 110, 605-609 (1985). The HEF were human embryonic lung fibroblasts, strain MRC-5, as described by Tyms and Williamson, Nature 297, 690-691 (1982).
(§3) For plaque reduction assays, 24-well culture trays were seeded with HEF cells. Confluent monolayers were infected with virus to give initially about 100 plaque-forming-units (p.f.u.) per well. After a one hour absorption period the inocula were replaced by l.5ml of a maintenance medium incorporating 0.5% low gelling temperature agarose, supplemented with various concentrations of test compound. For tests with CMV, infected monolayers were fixed with 5% formalin in phosphate buffered saline (PBS) at 6-8 days post-infection and stained with 0.3% methylene blue after removal of the overlay; whereas, tests with HSV were conducted in the same manner but with the monolayer fixing at 2 days post infection. The mean plaque number was calculated from a multiple series of counts (e.g., duplicate, triplicate or quadruplicate), converted to a percentage of untreated controls and values plotted against the log10 drug concentration. The 50% effective dose (ED50) was determined from best line fits for the curves.
The mean plaque numbers determined on HEF cells exposed to varying amount of N-Bu-DNJ, N-Me-DNJ, N-He-DNJ, 2-deoxy-D-glucose and castanospermine were converted to percentage values (plaque count in presence of drug divided by mean value of untreated controls×100), and plotted as a function of drug concentration [drug (mM)].
The 50% effective dose (ED50)--that amount of drug needed to reduce plaque count by 50%--was calculated to give the following values: […]

HIV = conditions: Tyms et al., Lancet, 1987; cited from earlier work
[3] = test system: Cytomegalovirus (Viral Strain Towne); experiment: Cytomegalovirus Plaque Reduction Assay; type: cell-based; conditions: for Plaque Count: replicate counts
Description: as §1, §2, §3
In a similar manner, the Effective Dosage Values (ED50) were determined from the curves of FIG. 1. A least squares fit of the data of FIG. 1 to an equation of the form: y=mx+b gave the following values: […]
From these values, a 50% effective dose (ED50) was calculated to give the following values: […]

HEF cells (strain MRC-5) [4] = type: cell-based, human
Protocol: Triplicate titer plates were seeded with human embryo fibroblast (HEF) cells (about 7.5×10^3 cells/well), and after 4 days of growth in the absence of presence of 2-deoxy-D-glucose and N-Bu-DNJ were counted and compared to a control without test compound.

HEF cells (strain MRC-5) [5] = experiment: HEF cell growth / monolayer appearance in HSV type II plaque reduction assay; type: cell-based, human
Protocol: as §3

[6] = Human betaherpesvirus 5, MRC5, 120 h
[7] = Human betaherpesvirus 5, MRC5, 144 h

**Q.** Which results are given for `O[C@H]1[C@H](O)[C@@H](O)CN2CC[C@H](O)[C@H]12` [Castanospermine, castanospermine, reference compound]?
**A.** PFU ([1]; 0.5 mM, 5 days HEF growth): 2.1 × 10^4 PFU (per ml maintenance medium; PFU ([1]; 0.5 mM, 6 days HEF growth): 2.3 × 10^4 PFU (per ml maintenance medium; PFU ([1]; 2.0 mM, 5 days HEF growth): 2.3 × 10^3 PFU (per ml maintenance medium; PFU ([1]; 2.0 mM, 6 days HEF growth): 1.8 × 10^3 PFU (per ml maintenance medium; activity at 500 µM [1, 6]: 13%; activity at 2000 µM [1, 6]: 1.4%; activity at 500 µM [1, 7]: 6.2%; activity at 2000 µM [1, 7]: 0.48%; activity at 250 µM ([2]; HEF, Table II, 0.25 mM, read-out: % Virus control): 56%; activity at 500 µM ([2]; HEF, Table II, 0.5 mM, read-out: % Virus control): 53%; activity at 1000 µM ([2]; HEF, Table II, 1.0 mM, read-out: % Virus control): 42%; activity at 2000 µM ([2]; HEF, Table II, 2.0 mM, read-out: % Virus control): 50%; activity at 4000 µM ([2]; HEF, Table II, 4.0 mM, read-out: % Virus control): 36%; Plaque Count Avg ([2]; Table II, 0.25 mM): 50; Plaque Count ([2]; Table II, 0.25 mM): 46,54; Plaque Count Avg ([2]; Table II, 0.5 mM): 48; Plaque Count ([2]; Table II, 0.5 mM): 52,44; Plaque Count Avg ([2]; Table II, 1.0 mM): 38; Plaque Count ([2]; Table II, 1.0 mM): 21,55; Plaque Count Avg ([2]; Table II, 2.0 mM): 45; Plaque Count ([2]; Table II, 2.0 mM): 61,28; Plaque Count Avg ([2]; Table II, 4.0 mM): 32; Plaque Count ([2]; Table II, 4.0 mM): 33,32; block of HIV growth (in words) (HIV): found to block the growth of the AIDS-associated virus HIV; EC50 ([3]; Human betaherpesvirus 5, HEF, CMV, calculated from least squares fit of FIG. 1, read-out: 50% effective dose (ED50)): 600 µM; activity at 250 µM ([3]; Human betaherpesvirus 5, HEF, Table IV, 0.25 mM, read-out: % Virus control): 81%; activity at 500 µM ([3]; Human betaherpesvirus 5, HEF, Table IV, 0.50 mM, read-out: % Virus control): 55%; activity at 1000 µM ([3]; Human betaherpesvirus 5, HEF, Table IV, 1.0 mM, read-out: % Virus control): 30%; activity at 2000 µM ([3]; Human betaherpesvirus 5, HEF, Table IV, 2.0 mM, read-out: % Virus control): 12%; Plaque Count Avg ([3]; Table IV, 0.25 mM): 166; Plaque Count ([3]; Table IV, 0.25 mM): 146,191,184,144; Plaque Count Avg ([3]; Table IV, 0.50 mM): 113; Plaque Count ([3]; Table IV, 0.50 mM): 108,112,122,111; Plaque Count Avg ([3]; Table IV, 1.0 mM): 61; Plaque Count Avg ([3]; Table IV, 2.0 mM): 25

**Q.** With `CN1C[C@H](O)[C@@H](O)[C@H](O)[C@H]1CO` [N-Me-DNJ, Nmethyl deoxynojirimycin] as the compound, how does the “antiviral activity against HSV type II (in words)” value [2] read?
**A.** The value was “substantially reduce herpesvirus type II infection of HEF cells”.

**Q.** What about the EC50 ([2]; HEF, amount of drug needed to reduce plaque count by 50%, read-out: 50% effective dose (ED50)) of the same compound?
**A.** Its EC50 is 2.8 mM.

**Q.** What about the activity at 280 µM ([2]; HEF, Table I, 0.28 mM, read-out: % Virus Control) of the same compound?
**A.** The activity at 280 µM was ≥ 100%.

**Q.** And the activity at 560 µM ([2]; HEF, Table I, 0.56 mM, read-out: % Virus Control)?
**A.** Its activity at 560 µM is 99%.

**Q.** What about the activity at 1120 µM ([2]; HEF, Table I, 1.12 mM, read-out: % Virus Control) of the same compound?
**A.** The activity at 1120 µM was 88%.

**Q.** What about the activity at 2240 µM ([2]; HEF, Table I, 2.24 mM, read-out: % Virus Control) of the same compound?
**A.** Its activity at 2240 µM is 50%.

**Q.** And the activity at 4480 µM ([2]; HEF, Table I, 4.48 mM, read-out: % Virus Control)?
**A.** The activity at 4480 µM was 18%.

**Q.** And the “Plaque Count Avg” value ([2]; Table I, 0.28 mM)?
**A.** Its value is 84.

**Q.** And the “Plaque Count” value ([2]; Table I, 0.28 mM)?
**A.** Its value is 72,95.

**Q.** What about the “Plaque Count Avg” value ([2]; Table I, 0.56 mM) of the same compound?
**A.** The value was 77.

**Q.** And the “Plaque Count” value ([2]; Table I, 0.56 mM)?
**A.** Its value is 79,74.

**Q.** What about the “Plaque Count Avg” value ([2]; Table I, 1.12 mM) of the same compound?
**A.** The value was 69.

**Q.** And the “Plaque Count” value ([2]; Table I, 1.12 mM)?
**A.** The value was 63,74.

**Q.** What about the “Plaque Count Avg” value ([2]; Table I, 2.24 mM) of the same compound?
**A.** The value was 39.

**Q.** And the “Plaque Count” value ([2]; Table I, 2.24 mM)?
**A.** Its value is 48,29.

**Q.** And the “Plaque Count Avg” value ([2]; Table I, 4.48 mM)?
**A.** Its value is 14.

**Q.** And the “Plaque Count” value ([2]; Table I, 4.48 mM)?
**A.** Its value is 9,19.

**Q.** Which “inhibitory effect on growth of normal cells (in words)” value (HEF cells (strain MRC-5) [4]) does the source give for `O=CC[C@@H](O)[C@H](O)[C@H](O)CO` [2-Deoxy-D-glucose, 2-deoxy-D-glucose, reference compound] here?
**A.** The value was “substantially inhibits the growth”.

**Q.** And the “inhibitory effect on herpesvirus type II (in words)” value ([2]; 2.5 mM)?
**A.** The value was “no inhibitory effect was observed”.

**Q.** And the activity at 2500 µM ([2]; HEF, Table II, 2.5 mM, read-out: % Virus control)?
**A.** The activity at 2500 µM was ≥ 100%.

**Q.** What about the activity at 5000 µM ([2]; HEF, Table II, 5.0 mM, read-out: % Virus control) of the same compound?
**A.** The activity at 5000 µM was 77%.

**Q.** What about the “Plaque Count Avg” value ([2]; Table II, 2.5 mM) of the same compound?
**A.** The value was 91.

**Q.** And the “Plaque Count” value ([2]; Table II, 2.5 mM)?
**A.** Its value is 94,88.

**Q.** And the “Plaque Count Avg” value ([2]; Table II, 5.0 mM)?
**A.** The value was 69.

**Q.** And the “Plaque Count” value ([2]; Table II, 5.0 mM)?
**A.** Its value is 61,76.

**Q.** With `OC[C@H]1NC[C@H](O)[C@@H](O)[C@@H]1O` [DNJ, 1,5-dideoxy-l,5-imino-Dglucitol] as the compound, how does the “block of HIV growth (in words)” value (HIV) read?
**A.** Its value is “found to block the growth of the AIDS-associated virus HIV”.

**Q.** What does the source list for `CCCCCCN1C[C@H](O)[C@@H](O)[C@H](O)[C@H]1CO` [N-He-DNJ, Nhexyl deoxynojirimycin]?
**A.** EC50 ([2]; HEF, tested up to 1.1 mM, read-out: estimated ED50): ~0.25 mM; activity at 560 µM ([2]; HEF, Table III, 0.56 mM, read-out: % Virus Control): 31.4%; activity at 1120 µM ([2]; HEF, Table III, 1.12 mM, read-out: % Virus Control): 15.7%; Plaque Count Avg ([2]; Table III, 0.56 mM): 16; Plaque Count Avg ([2]; Table III, 1.12 mM): 8; Plaque Count ([2]; Table III, 2.25 mM): trace; Plaque Count ([2]; Table III, 4.5 mM): none; size of plaques compared to control test (in words) ([2]; Table III, 2.25 and 4.5 mM): significantly reduced; antiviral activity against HSV type II (in words) ([2]; up to 1.1 mM): substantial antiviral activity; HEF cell growth (in words) (HEF cells (strain MRC-5) [5]; 0.56 and 1.12 mM): grew normally; appearance of HEF cell monolayers (in words) (HEF cells (strain MRC-5) [5]; 2.25 and 4.5 mM): looked thin; cell growth (in words) (HEF cells (strain MRC-5) [5]; higher concentrations (above 1.1 mM)): cell growth also was retarded
